Laboratory results reported in patent publication US20250147039A1, “Compounds for complexation of rare earth elements and/or s-, p-, d- block metals, their coordination compounds, peptide conjugates, method of their preparation and use thereof” (USTAV ORGANICKE CHEMIE A BIOCHEMIE AV CR V.V.I., priority 2021, published 2025).

Columns and labels:
[1] = Formation of 1,5-cz-[M(Lig)] from Lig and M^III ions (metal dependent click-zip) (Charts 4, 5); assay type: physicochemical; conditions: MOPS/NaOH buffer pH 7.0, TD728, TD827 in 50% i-PrOH; for conversion to 1,5-cz-[M(Lig)], Y^III: TD714 sum of two diastereoisomers
[2] = Alkali metal dependent formation of 1,5-cz-Lig and 1,4-cz-Lig isomers from Lig at pH 10.2 (Chart 14); assay type: physicochemical; conditions: B: 1 day at 80° C., Borate/(M^I)2CO3 buffer pH 10.2
[3] = Formation of 1,5-cz-[Ln(Lig)] from Lig and Ln^III ions (metal dependent click-zip), MOPS/NaOH buffer pH 7.0, analytical HPLC (Charts 1, 2); conditions: MOPS/NaOH buffer pH 7.0
[4] = Dissociation of chelates in aq. 6.0M HCl at 80° C. (acid decomplexation kinetic inertness) (Chart 17); assay type: physicochemical
[5] = visible analyte free precipitate

C#Cc1cccc(CN2CCN(CP(=O)(O)OCC)CCN(Cc3cccc(CN=[N+]=[N-])n3)CCN(CP(=O)(O)OCC)CC2)n1 [TD582]
conversion to 1,5-cz-[M(Lig)], Sc^III ([1]; 1 week at 80° C.): 0%
conversion to 1,5-cz-[M(Lig)], Y^III ([1]; 1 week at 80° C.): 68%
conversion to 1,5-cz-[M(Lig)], Sc^III ([1]; 1 hour at 80° C.): 0%
conversion to 1,5-cz-[M(Lig)], Y^III ([1]; 1 hour at 80° C.): 11%
conversion to 1,4-cz-Lig isomer, Cs^I [2]: 26%
conversion to 1,4-cz-Lig isomer, K^I [2]: 25%
conversion to 1,4-cz-Lig isomer, Na^I [2]: 2%
conversion to 1,4-cz-Lig isomer, Rb^I [2]: 25%
conversion to 1,5-cz-Lig isomer, Cs^I [2]: 10%
conversion to 1,5-cz-Lig isomer, K^I [2]: 11%
conversion to 1,5-cz-Lig isomer, Na^I [2]: 69%
conversion to 1,5-cz-Lig isomer, Rb^I [2]: 10%
conversion to 1,4-cz-Lig isomer, Li^I [2, 5]: 3%
conversion to 1,5-cz-Lig isomer, Li^I [2, 5]: 53%
conversion to 1,5-cz-[Ln(Lig)], Ce^III ([3]; after 1 week at 80° C.): 0%
conversion to 1,5-cz-[Ln(Lig)], Ce^III ([3]; after 1 hour at 80° C.): 0%
conversion to 1,5-cz-[Ln(Lig)], Dy^III ([3]; after 1 week at 80° C.): 85%
conversion to 1,5-cz-[Ln(Lig)], Dy^III ([3]; after 1 hour at 80° C.): 18%
conversion to 1,5-cz-[Ln(Lig)], Er^III ([3]; after 1 week at 80° C.): 74%
conversion to 1,5-cz-[Ln(Lig)], Er^III ([3]; after 1 hour at 80° C.): 15%
conversion to 1,5-cz-[Ln(Lig)], Eu^III ([3]; after 1 week at 80° C.): 87%
conversion to 1,5-cz-[Ln(Lig)], Eu^III ([3]; after 1 hour at 80° C.): 14%
conversion to 1,5-cz-[Ln(Lig)], Gd^III ([3]; after 1 week at 80° C.): 86%
conversion to 1,5-cz-[Ln(Lig)], Gd^III ([3]; after 1 hour at 80° C.): 15%
conversion to 1,5-cz-[Ln(Lig)], Ho^III ([3]; after 1 week at 80° C.): 79%
conversion to 1,5-cz-[Ln(Lig)], Ho^III ([3]; after 1 hour at 80° C.): 16%
conversion to 1,5-cz-[Ln(Lig)], La^III ([3]; after 1 week at 80° C.): 0%
conversion to 1,5-cz-[Ln(Lig)], La^III ([3]; after 1 hour at 80° C.): 0%
conversion to 1,5-cz-[Ln(Lig)], Lu^III ([3]; after 1 week at 80° C.): 26%
conversion to 1,5-cz-[Ln(Lig)], Lu^III ([3]; after 1 hour at 80° C.): 5%
conversion to 1,5-cz-[Ln(Lig)], Nd^III ([3]; after 1 week at 80° C.): 60%
conversion to 1,5-cz-[Ln(Lig)], Nd^III ([3]; after 1 hour at 80° C.): 6%
conversion to 1,5-cz-[Ln(Lig)], Pr^III ([3]; after 1 week at 80° C.): 17%
conversion to 1,5-cz-[Ln(Lig)], Pr^III ([3]; after 1 hour at 80° C.): 5%
conversion to 1,5-cz-[Ln(Lig)], Sm^III ([3]; after 1 week at 80° C.): 86%
conversion to 1,5-cz-[Ln(Lig)], Sm^III ([3]; after 1 hour at 80° C.): 12%
conversion to 1,5-cz-[Ln(Lig)], Tb^III ([3]; after 1 week at 80° C.): 82%
conversion to 1,5-cz-[Ln(Lig)], Tb^III ([3]; after 1 hour at 80° C.): 18%
conversion to 1,5-cz-[Ln(Lig)], Tm^III ([3]; after 1 week at 80° C.): 68%
conversion to 1,5-cz-[Ln(Lig)], Tm^III ([3]; after 1 hour at 80° C.): 14%
conversion to 1,5-cz-[Ln(Lig)], Yb^III ([3]; after 1 week at 80° C.): 59%
conversion to 1,5-cz-[Ln(Lig)], Yb^III ([3]; after 1 hour at 80° C.): 12%

NCc1nnn2c1-c1cccc(n1)C[N@]1CC[N@]3CC[N@@](CC[N@@](CC1)CC(=O)[O][Lu][O]C(=O)C3)Cc1cc(-c3ccccc3)cc(n1)C2 [TD735]
fraction of intact chelate ([4]; 1 month): 98%
fraction of intact chelate ([4]; 1 week): 99%
fraction of intact chelate ([4]; 1 hour): 100%
fraction of intact chelate ([4]; 1 day): 100%

C#Cc1cccc(CN2CCN(CCC(=O)O)CCN(Cc3cccc(CN=[N+]=[N-])n3)CCN(CCC(=O)O)CC2)n1 [TD801]
conversion to 1,5-cz-[M(Lig)], Sc^III ([1]; 1 week at 80° C.): 0%
conversion to 1,5-cz-[M(Lig)], Y^III ([1]; 1 week at 80° C.): 0%
conversion to 1,5-cz-[M(Lig)], Sc^III ([1]; 1 hour at 80° C.): 0%
conversion to 1,5-cz-[M(Lig)], Y^III ([1]; 1 hour at 80° C.): 0%
conversion to 1,5-cz-[Ln(Lig)], Ce^III ([3]; after 1 week at 80° C.): 0%
conversion to 1,5-cz-[Ln(Lig)], Ce^III ([3]; after 1 hour at 80° C.): 0%
conversion to 1,5-cz-[Ln(Lig)], Dy^III ([3]; after 1 week at 80° C.): 0%
conversion to 1,5-cz-[Ln(Lig)], Dy^III ([3]; after 1 hour at 80° C.): 0%
conversion to 1,5-cz-[Ln(Lig)], Er^III ([3]; after 1 week at 80° C.): 0%
conversion to 1,5-cz-[Ln(Lig)], Er^III ([3]; after 1 hour at 80° C.): 0%
conversion to 1,5-cz-[Ln(Lig)], Eu^III ([3]; after 1 week at 80° C.): 0%
conversion to 1,5-cz-[Ln(Lig)], Eu^III ([3]; after 1 hour at 80° C.): 0%
conversion to 1,5-cz-[Ln(Lig)], Gd^III ([3]; after 1 week at 80° C.): 0%
conversion to 1,5-cz-[Ln(Lig)], Gd^III ([3]; after 1 hour at 80° C.): 0%
conversion to 1,5-cz-[Ln(Lig)], Ho^III ([3]; after 1 week at 80° C.): 0%
conversion to 1,5-cz-[Ln(Lig)], Ho^III ([3]; after 1 hour at 80° C.): 0%
conversion to 1,5-cz-[Ln(Lig)], La^III ([3]; after 1 week at 80° C.): 0%
conversion to 1,5-cz-[Ln(Lig)], La^III ([3]; after 1 hour at 80° C.): 0%
conversion to 1,5-cz-[Ln(Lig)], Lu^III ([3]; after 1 week at 80° C.): 0%
conversion to 1,5-cz-[Ln(Lig)], Lu^III ([3]; after 1 hour at 80° C.): 0%
conversion to 1,5-cz-[Ln(Lig)], Nd^III ([3]; after 1 week at 80° C.): 0%
conversion to 1,5-cz-[Ln(Lig)], Nd^III ([3]; after 1 hour at 80° C.): 0%
conversion to 1,5-cz-[Ln(Lig)], Pr^III ([3]; after 1 week at 80° C.): 0%
conversion to 1,5-cz-[Ln(Lig)], Pr^III ([3]; after 1 hour at 80° C.): 0%
conversion to 1,5-cz-[Ln(Lig)], Sm^III ([3]; after 1 week at 80° C.): 0%
conversion to 1,5-cz-[Ln(Lig)], Sm^III ([3]; after 1 hour at 80° C.): 0%
conversion to 1,5-cz-[Ln(Lig)], Tb^III ([3]; after 1 week at 80° C.): 0%
conversion to 1,5-cz-[Ln(Lig)], Tb^III ([3]; after 1 hour at 80° C.): 0%
conversion to 1,5-cz-[Ln(Lig)], Tm^III ([3]; after 1 week at 80° C.): 0%
conversion to 1,5-cz-[Ln(Lig)], Tm^III ([3]; after 1 hour at 80° C.): 0%
conversion to 1,5-cz-[Ln(Lig)], Yb^III ([3]; after 1 week at 80° C.): 0%
conversion to 1,5-cz-[Ln(Lig)], Yb^III ([3]; after 1 hour at 80° C.): 0%

C#Cc1cccc(CN2CCN(CC(=O)NCC(=O)O)CCN(Cc3cc(-c4ccccc4)cc(CN=[N+]=[N-])n3)CCN(CC(=O)NCC(=O)O)CC2)n1 [TD778]
conversion to 1,5-cz-[M(Lig)], Sc^III ([1]; 1 week at 80° C.): 0%
conversion to 1,5-cz-[M(Lig)], Y^III ([1]; 1 week at 80° C.): 27%
conversion to 1,5-cz-[M(Lig)], Sc^III ([1]; 1 hour at 80° C.): 0%
conversion to 1,5-cz-[M(Lig)], Y^III ([1]; 1 hour at 80° C.): 17%
conversion to 1,5-cz-[Ln(Lig)], Ce^III ([3]; after 1 week at 80° C.): 0%
conversion to 1,5-cz-[Ln(Lig)], Ce^III ([3]; after 1 hour at 80° C.): 20%
conversion to 1,5-cz-[Ln(Lig)], Dy^III ([3]; after 1 week at 80° C.): 18%
conversion to 1,5-cz-[Ln(Lig)], Dy^III ([3]; after 1 hour at 80° C.): 13%
conversion to 1,5-cz-[Ln(Lig)], Er^III ([3]; after 1 week at 80° C.): 32%
conversion to 1,5-cz-[Ln(Lig)], Er^III ([3]; after 1 hour at 80° C.): 25%
conversion to 1,5-cz-[Ln(Lig)], Eu^III ([3]; after 1 week at 80° C.): 3%
conversion to 1,5-cz-[Ln(Lig)], Eu^III ([3]; after 1 hour at 80° C.): 4%
conversion to 1,5-cz-[Ln(Lig)], Gd^III ([3]; after 1 week at 80° C.): 11%
conversion to 1,5-cz-[Ln(Lig)], Gd^III ([3]; after 1 hour at 80° C.): 4%
conversion to 1,5-cz-[Ln(Lig)], Ho^III ([3]; after 1 week at 80° C.): 30%
conversion to 1,5-cz-[Ln(Lig)], Ho^III ([3]; after 1 hour at 80° C.): 17%
conversion to 1,5-cz-[Ln(Lig)], La^III ([3]; after 1 week at 80° C.): 0%
conversion to 1,5-cz-[Ln(Lig)], La^III ([3]; after 1 hour at 80° C.): 24%
conversion to 1,5-cz-[Ln(Lig)], Lu^III ([3]; after 1 week at 80° C.): 34%
conversion to 1,5-cz-[Ln(Lig)], Lu^III ([3]; after 1 hour at 80° C.): 26%
conversion to 1,5-cz-[Ln(Lig)], Nd^III ([3]; after 1 week at 80° C.): 0%
conversion to 1,5-cz-[Ln(Lig)], Nd^III ([3]; after 1 hour at 80° C.): 9%
conversion to 1,5-cz-[Ln(Lig)], Pr^III ([3]; after 1 week at 80° C.): 0%
conversion to 1,5-cz-[Ln(Lig)], Pr^III ([3]; after 1 hour at 80° C.): 13%
conversion to 1,5-cz-[Ln(Lig)], Sm^III ([3]; after 1 week at 80° C.): 1%
conversion to 1,5-cz-[Ln(Lig)], Sm^III ([3]; after 1 hour at 80° C.): 4%
conversion to 1,5-cz-[Ln(Lig)], Tb^III ([3]; after 1 week at 80° C.): 15%
conversion to 1,5-cz-[Ln(Lig)], Tb^III ([3]; after 1 hour at 80° C.): 9%
conversion to 1,5-cz-[Ln(Lig)], Tm^III ([3]; after 1 week at 80° C.): 31%
conversion to 1,5-cz-[Ln(Lig)], Tm^III ([3]; after 1 hour at 80° C.): 31%
conversion to 1,5-cz-[Ln(Lig)], Yb^III ([3]; after 1 week at 80° C.): 27%
conversion to 1,5-cz-[Ln(Lig)], Yb^III ([3]; after 1 hour at 80° C.): 30%

O=C1CN2CCN3CCN(CCN(CC2)Cc2cccc(n2)-c2cnnn2Cc2cccc(n2)C3)CP(=O)(O)[O][Lu][O]1 [TD734]
fraction of intact chelate ([4]; 1 month): 95%
fraction of intact chelate ([4]; 1 week): 98%
fraction of intact chelate ([4]; 1 hour): 100%
fraction of intact chelate ([4]; 1 day): 100%
